# Data published in ChEMBL document CHEMBL4390652, “Design, biological evaluation and X-ray crystallography of nanomolar multifunctional ligands targeting simultaneously acetylcholinesterase and glycogen synthase kinase-3” (Eur J Med Chem, 2019).
# Columns and labels:
# [1] = system: Tyrosine-protein kinase ABL1 (Homo sapiens), P00519 [F317I]; experiment: Binding affinity to human phosphorylated ABL1 F317I mutant (S229 to K512 residues) expressed in mammalian expression system assessed as residual binding level at 10 uM by Kinomescan method relative to control
# [2] = target: Receptor tyrosine-protein kinase erbB-3 (Homo sapiens) (UniProt P21860); experiment: Binding affinity to wild-type human partial length ERBB3 (G684 to A987 residues) expressed in mammalian expression system assessed as residual binding level at 10 uM by Kinomescan method relative to control
# [3] = target: Serine/threonine-protein kinase pim-3 (Homo sapiens) (UniProt Q86V86); experiment: Binding affinity to wild-type human partial length PIM3 (G16 to A317 residues) expressed in bacterial expression system assessed as residual binding level at 10 uM by Kinomescan method relative to control
# [4] = target: Hepatocyte growth factor receptor (Homo sapiens) (UniProt P08581); experiment: Binding affinity to wild-type human partial length MET (D1010 to S1367 residues) expressed in bacterial expression system assessed as residual binding level at 10 uM by Kinomescan method relative to control
# [5] = target: Glycogen synthase kinase-3 alpha (Homo sapiens) (UniProt P49840); experiment: Binding affinity to wild-type human full length GSK3A (M1 to S483 residues) expressed in bacterial expression system assessed as residual binding level at 10 uM by Kinomescan method relative to control
# [6] = target: Serine/threonine-protein kinase Nek4 (Homo sapiens) (UniProt P51957); experiment: Binding affinity to wild-type human full length NEK4 (M1 to F841 residues) expressed in mammalian expression system assessed as residual binding level at 10 uM by Kinomescan method relative to control
# [7] = target: Mitogen-activated protein kinase 4 (Homo sapiens) (UniProt P31152); experiment: Binding affinity to wild-type human partial length ERK4 (M1 to L365 residues) expressed in bacterial expression system assessed as residual binding level at 10 uM by Kinomescan method relative to control
# [8] = target: Serine/threonine-protein kinase 32C (Homo sapiens) (UniProt Q86UX6); experiment: Binding affinity to wild-type human partial length YANK3 (M68 to G486 residues) expressed in bacterial expression system assessed as residual binding level at 10 uM by Kinomescan method relative to control
# [9] = system: Mast/stem cell growth factor receptor Kit (Homo sapiens), P10721 [L576P]; experiment: Binding affinity to human partial length KIT L576P mutant (Y545 to D952 residues) expressed in bacterial expression system assessed as residual binding level at 10 uM by Kinomescan method relative to control
# [10] = target: Calcium/calmodulin-dependent protein kinase type II subunit beta (Homo sapiens) (UniProt Q13554); experiment: Binding affinity to wild-type human partial length CAMK2B (M1 to Q380 residues) expressed in bacterial expression system assessed as residual binding level at 10 uM by Kinomescan method relative to control
# [11] = target: Serine/threonine-protein kinase Nek10 (Homo sapiens) (UniProt Q6ZWH5); experiment: Binding affinity to wild-type human partial length NEK10 (L488 to R809 residues) expressed in mammalian expression system assessed as residual binding level at 10 uM by Kinomescan method relative to control
# [12] = target: Wee1-like protein kinase (Homo sapiens) (UniProt P30291); experiment: Binding affinity to wild-type human partial length WEE1 (M291 to K575 residues) expressed in bacterial expression system assessed as residual binding level at 10 uM by Kinomescan method relative to control
# SH-SY5Y = experiment: Cytotoxicity against human SH-SY5Y cells assessed as reduction in cell viability incubated for 72 hrs by MTT assay; assay type: cell-based
# [13] = target: Ephrin type-B receptor 2 (Homo sapiens) (UniProt P29323); experiment: Binding affinity to wild-type human partial length EPHB2 (I597 to L902 residues) expressed in bacterial expression system assessed as residual binding level at 10 uM by Kinomescan method relative to control
# [14] = target: Myotonin-protein kinase (Homo sapiens) (UniProt Q09013); experiment: Binding affinity to wild-type human partial length DMPK (V47 to V415 residues) expressed in bacterial expression system assessed as residual binding level at 10 uM by Kinomescan method relative to control
# [15] = target: Myosin light chain kinase 2, skeletal/cardiac muscle (Homo sapiens) (UniProt Q9H1R3); experiment: Binding affinity to wild-type human partial length MYLK2 (D258 to K570 residues) expressed in bacterial expression system assessed as residual binding level at 10 uM by Kinomescan method relative to control
# [16] = target: Activated CDC42 kinase 1 (Homo sapiens) (UniProt Q07912); experiment: Binding affinity to wild-type human partial length TNK2 (S159 to D474 residues) expressed in bacterial expression system assessed as residual binding level at 10 uM by Kinomescan method relative to control
# [17] = target: Cyclin-dependent kinase 18 (Homo sapiens) (UniProt Q07002); experiment: Binding affinity to wild-type human full length PCTK3 (M3 to F474 residues) expressed in bacterial expression system assessed as residual binding level at 10 uM by Kinomescan method relative to control
# [18] = target: Dual specificity mitogen-activated protein kinase kinase 6 (Homo sapiens) (UniProt P52564); experiment: Binding affinity to wild-type human partial length MEK6 (K36 to D334 residues) expressed in bacterial expression system assessed as residual binding level at 10 uM by Kinomescan method relative to control
# [19] = target: Death-associated protein kinase 3 (Homo sapiens) (UniProt O43293); experiment: Binding affinity to wild-type human partial length DAPK3 (M1 to A277 residues) expressed in bacterial expression system assessed as residual binding level at 10 uM by Kinomescan method relative to control
# [20] = target: Protein kinase C theta type (Homo sapiens) (UniProt Q04759); experiment: Binding affinity to wild-type human partial length PRKCQ (L350 to S706 residues) expressed in bacterial expression system assessed as residual binding level at 10 uM by Kinomescan method relative to control
# [21] = target: Uncharacterized serine/threonine-protein kinase SBK3 (Homo sapiens) (UniProt P0C264); experiment: Binding affinity to wild-type human partial length SgK110 (L22 to R329 residues) expressed in bacterial expression system assessed as residual binding level at 10 uM by Kinomescan method relative to control
# [22] = system: Phosphatidylinositol 4,5-bisphosphate 3-kinase catalytic subunit alpha isoform (Homo sapiens), P42336 [E545A]; experiment: Binding affinity to human partial length PIK3CA E545A mutant (R108 to N1068 residues) expressed in mammalian expression system assessed as residual binding level at 10 uM by Kinomescan method relative to control
# [23] = target: Mitogen-activated protein kinase kinase kinase 4 (Homo sapiens) (UniProt Q9Y6R4); experiment: Binding affinity to wild-type human partial length MAP3K4 (G1319 to E1608 residues) expressed in bacterial expression system assessed as residual binding level at 10 uM by Kinomescan method relative to control
# [24] = target: Bone morphogenetic protein receptor type-1A (Homo sapiens) (UniProt P36894); experiment: Binding affinity to wild-type human partial length BMPR1A (Q214 to I532 residues) expressed in bacterial expression system assessed as residual binding level at 10 uM by Kinomescan method relative to control
# Sequence of Mitogen-activated protein kinase 4 (Homo sapiens) (P31152 whole entry, the tested form may be a part): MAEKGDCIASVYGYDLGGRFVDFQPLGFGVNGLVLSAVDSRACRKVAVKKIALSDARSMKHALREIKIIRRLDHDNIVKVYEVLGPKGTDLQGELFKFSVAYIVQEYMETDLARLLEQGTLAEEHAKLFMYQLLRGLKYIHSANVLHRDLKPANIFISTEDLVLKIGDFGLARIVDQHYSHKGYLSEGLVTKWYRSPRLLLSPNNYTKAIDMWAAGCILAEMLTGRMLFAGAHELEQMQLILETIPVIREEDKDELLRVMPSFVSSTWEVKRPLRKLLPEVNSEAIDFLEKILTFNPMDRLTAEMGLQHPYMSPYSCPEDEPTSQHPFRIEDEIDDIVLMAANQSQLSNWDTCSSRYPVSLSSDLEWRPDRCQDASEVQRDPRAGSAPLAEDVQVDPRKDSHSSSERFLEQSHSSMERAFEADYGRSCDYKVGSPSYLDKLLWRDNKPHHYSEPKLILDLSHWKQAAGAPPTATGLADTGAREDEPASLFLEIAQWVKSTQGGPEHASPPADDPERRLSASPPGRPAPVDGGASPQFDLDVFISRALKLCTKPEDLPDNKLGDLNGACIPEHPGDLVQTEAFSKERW
# Sequence of Glycogen synthase kinase-3 alpha (Homo sapiens) (P49840 2-483 limits assumed): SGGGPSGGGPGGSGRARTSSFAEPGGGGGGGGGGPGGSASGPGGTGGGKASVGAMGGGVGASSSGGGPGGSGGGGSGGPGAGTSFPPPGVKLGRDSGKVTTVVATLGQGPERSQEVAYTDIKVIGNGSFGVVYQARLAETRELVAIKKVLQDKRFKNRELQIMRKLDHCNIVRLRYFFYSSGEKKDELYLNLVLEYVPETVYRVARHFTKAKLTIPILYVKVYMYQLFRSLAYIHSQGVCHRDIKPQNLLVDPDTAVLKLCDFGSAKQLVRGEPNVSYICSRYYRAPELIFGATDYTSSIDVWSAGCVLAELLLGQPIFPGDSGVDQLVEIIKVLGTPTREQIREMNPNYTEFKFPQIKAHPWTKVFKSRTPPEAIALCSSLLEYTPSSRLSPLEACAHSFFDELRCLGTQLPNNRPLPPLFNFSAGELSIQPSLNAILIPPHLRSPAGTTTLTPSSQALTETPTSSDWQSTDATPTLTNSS
# Sequence of Activated CDC42 kinase 1 (Homo sapiens) (Q07912 whole entry, looked up, the tested form may be a part): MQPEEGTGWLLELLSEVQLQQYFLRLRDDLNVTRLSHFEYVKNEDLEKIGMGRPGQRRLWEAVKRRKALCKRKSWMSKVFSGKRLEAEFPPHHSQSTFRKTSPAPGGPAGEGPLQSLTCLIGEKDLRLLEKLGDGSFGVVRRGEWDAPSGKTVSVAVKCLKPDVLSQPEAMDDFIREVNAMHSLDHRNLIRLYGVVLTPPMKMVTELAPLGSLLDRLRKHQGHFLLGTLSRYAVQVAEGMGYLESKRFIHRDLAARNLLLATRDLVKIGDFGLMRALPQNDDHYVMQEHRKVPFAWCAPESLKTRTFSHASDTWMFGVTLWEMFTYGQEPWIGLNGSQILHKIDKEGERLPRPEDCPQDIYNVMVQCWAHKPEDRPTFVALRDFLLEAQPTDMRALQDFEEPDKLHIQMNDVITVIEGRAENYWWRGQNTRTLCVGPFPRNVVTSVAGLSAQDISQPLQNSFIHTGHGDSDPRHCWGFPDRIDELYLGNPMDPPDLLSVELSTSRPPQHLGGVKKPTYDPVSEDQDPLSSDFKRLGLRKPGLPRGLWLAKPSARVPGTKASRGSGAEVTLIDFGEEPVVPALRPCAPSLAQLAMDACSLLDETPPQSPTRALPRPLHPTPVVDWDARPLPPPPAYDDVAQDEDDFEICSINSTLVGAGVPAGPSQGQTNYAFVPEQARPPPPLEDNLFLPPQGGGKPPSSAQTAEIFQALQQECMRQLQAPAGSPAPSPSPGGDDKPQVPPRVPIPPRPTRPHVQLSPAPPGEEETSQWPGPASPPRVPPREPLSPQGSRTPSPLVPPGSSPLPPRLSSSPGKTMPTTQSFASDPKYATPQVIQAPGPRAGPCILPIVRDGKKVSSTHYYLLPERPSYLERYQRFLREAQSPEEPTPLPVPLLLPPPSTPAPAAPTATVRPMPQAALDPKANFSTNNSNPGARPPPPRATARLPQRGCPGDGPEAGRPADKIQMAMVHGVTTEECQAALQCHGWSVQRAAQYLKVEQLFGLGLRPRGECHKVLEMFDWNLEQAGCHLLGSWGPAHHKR
# Sequence of Mast/stem cell growth factor receptor Kit (Homo sapiens), P10721 [L576P] (P10721 whole entry L576P, the tested form may be a part): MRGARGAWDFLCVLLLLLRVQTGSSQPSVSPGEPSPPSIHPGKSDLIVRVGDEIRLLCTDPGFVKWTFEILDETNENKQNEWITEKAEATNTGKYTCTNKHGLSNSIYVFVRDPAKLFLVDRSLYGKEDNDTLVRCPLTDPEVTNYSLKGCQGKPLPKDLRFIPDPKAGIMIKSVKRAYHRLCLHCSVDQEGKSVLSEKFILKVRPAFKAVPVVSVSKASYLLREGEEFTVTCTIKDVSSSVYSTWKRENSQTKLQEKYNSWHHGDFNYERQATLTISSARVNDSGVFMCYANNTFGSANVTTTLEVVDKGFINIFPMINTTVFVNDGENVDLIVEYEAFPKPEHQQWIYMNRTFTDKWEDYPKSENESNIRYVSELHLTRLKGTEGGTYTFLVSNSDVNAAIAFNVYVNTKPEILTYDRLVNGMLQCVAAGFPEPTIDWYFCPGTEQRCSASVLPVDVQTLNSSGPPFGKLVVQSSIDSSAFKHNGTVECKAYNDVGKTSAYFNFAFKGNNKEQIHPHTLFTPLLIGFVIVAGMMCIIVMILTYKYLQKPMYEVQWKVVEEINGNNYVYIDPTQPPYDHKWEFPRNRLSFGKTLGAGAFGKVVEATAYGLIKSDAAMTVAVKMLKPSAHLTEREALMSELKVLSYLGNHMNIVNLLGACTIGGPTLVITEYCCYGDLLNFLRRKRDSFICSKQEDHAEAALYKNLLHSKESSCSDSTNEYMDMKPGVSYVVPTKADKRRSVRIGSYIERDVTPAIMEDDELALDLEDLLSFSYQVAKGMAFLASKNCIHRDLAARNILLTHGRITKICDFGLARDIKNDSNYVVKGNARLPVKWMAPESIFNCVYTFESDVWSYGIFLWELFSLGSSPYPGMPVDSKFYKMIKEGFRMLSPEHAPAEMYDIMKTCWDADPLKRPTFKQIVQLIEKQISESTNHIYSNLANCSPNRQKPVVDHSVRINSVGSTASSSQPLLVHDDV
# Sequence of Myotonin-protein kinase (Homo sapiens) (Q09013 whole entry, the tested form may be a part): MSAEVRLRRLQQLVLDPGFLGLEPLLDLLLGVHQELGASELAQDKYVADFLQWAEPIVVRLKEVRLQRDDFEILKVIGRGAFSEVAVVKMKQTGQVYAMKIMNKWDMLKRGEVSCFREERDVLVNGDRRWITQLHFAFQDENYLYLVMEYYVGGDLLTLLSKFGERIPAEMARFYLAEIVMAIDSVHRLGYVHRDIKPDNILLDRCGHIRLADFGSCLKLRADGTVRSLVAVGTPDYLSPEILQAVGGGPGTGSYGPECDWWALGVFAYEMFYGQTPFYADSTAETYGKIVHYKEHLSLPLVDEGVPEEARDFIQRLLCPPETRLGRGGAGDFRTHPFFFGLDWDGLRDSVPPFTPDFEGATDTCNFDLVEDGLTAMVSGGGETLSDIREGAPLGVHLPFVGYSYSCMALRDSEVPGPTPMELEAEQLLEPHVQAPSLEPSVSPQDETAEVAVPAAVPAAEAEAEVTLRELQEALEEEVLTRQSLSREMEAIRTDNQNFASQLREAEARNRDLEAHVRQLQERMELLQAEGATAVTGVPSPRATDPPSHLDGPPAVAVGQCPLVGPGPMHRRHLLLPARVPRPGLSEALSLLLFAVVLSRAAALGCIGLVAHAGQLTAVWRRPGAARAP
# Sequence of Uncharacterized serine/threonine-protein kinase SBK3 (Homo sapiens) (P0C264 whole entry, the tested form may be a part, canonical isoform): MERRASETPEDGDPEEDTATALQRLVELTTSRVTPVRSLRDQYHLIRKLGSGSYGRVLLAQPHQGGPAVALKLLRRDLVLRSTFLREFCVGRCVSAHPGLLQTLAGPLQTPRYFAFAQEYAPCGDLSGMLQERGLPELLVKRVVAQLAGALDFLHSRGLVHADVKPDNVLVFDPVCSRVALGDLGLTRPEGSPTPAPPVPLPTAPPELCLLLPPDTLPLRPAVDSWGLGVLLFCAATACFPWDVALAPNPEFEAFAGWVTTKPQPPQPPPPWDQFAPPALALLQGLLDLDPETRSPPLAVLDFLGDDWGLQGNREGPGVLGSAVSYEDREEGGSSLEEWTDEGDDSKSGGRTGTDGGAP
# Sequence of Protein kinase C theta type (Homo sapiens) (Q04759 whole entry, looked up, the tested form may be a part): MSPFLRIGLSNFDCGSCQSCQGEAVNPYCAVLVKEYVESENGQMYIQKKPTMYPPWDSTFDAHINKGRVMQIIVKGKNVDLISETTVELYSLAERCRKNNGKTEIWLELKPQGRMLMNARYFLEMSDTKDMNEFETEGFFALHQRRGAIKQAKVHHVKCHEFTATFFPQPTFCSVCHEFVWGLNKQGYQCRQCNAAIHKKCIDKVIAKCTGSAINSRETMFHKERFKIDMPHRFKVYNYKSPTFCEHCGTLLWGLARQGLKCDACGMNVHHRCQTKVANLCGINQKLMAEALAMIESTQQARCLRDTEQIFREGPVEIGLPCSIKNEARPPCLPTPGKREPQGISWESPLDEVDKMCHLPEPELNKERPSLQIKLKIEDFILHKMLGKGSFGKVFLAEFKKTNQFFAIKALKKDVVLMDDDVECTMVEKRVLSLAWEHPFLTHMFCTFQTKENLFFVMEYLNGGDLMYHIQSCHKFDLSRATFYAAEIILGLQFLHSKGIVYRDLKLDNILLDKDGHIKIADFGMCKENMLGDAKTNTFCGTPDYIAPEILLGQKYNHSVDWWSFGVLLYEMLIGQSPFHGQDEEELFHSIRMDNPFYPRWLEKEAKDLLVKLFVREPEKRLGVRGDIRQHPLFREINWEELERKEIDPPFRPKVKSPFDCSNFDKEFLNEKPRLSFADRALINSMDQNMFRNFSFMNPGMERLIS
compound,measurement,setting,value
O=C(Nc1cc(-c2cn(CCNc3c4c(nc5ccccc35)CCCC4)nn2)ccn1)Nc1cccc2c1C1CCCCN1C2=O (racemic),Activity,[1],47%
same,Activity,[2],73%
same,Activity,[3],24%
same,Activity,[4],57%
same,Activity,[5],0.3%
same,Activity,[6],98%
same,Activity,[7],4.7%
same,Activity,[8],75%
same,Activity,[9],0%
same,Activity,[10],84%
same,Activity,[11],2.5%
same,Activity,[12],100%
same,IC50,SH-SY5Y,13 µM
same,Activity,[13],61%
same,Activity,[14],18%
same,Activity,[15],24%
same,Activity,[16],100%
same,Activity,[17],6.2%
same,Activity,[18],63%
same,Activity,[19],66%
same,Activity,[20],27%
same,Activity,[21],100%
same,Activity,[22],72%
same,Activity,[23],79%
same,Activity,[24],92%
